Measured values: the NIST ThermoML archive (doi:10.1021/je3010535)
“And” between values parts separate entries of the source, which are not always exact repeats. Equal values may be shown once. ± gives the expanded uncertainty stated by the source.

Assay: Henry's Law constant (molality scale); of the first substance listed, at infinite dilution; mn = molality of the nth substance listed, in mol/kg
Conditions: Liquid, Chromatography, m1 = 0

SMILES | Henry's Law constant (274.15 K) | Henry's Law constant (294.65 K) | Henry's Law constant (296.15 K) | Henry's Law constant (310.15 K) | Henry's Law constant (331.15 K) | Henry's Law constant (313.15 K) | Henry's Law constant (326.15 K) | Henry's Law constant (320.15 K) | Henry's Law constant (333.15 K)
Cl/C=C/CCl [(E)-1,3-dichloro-1-propene] + O | 52.9 ± 16 kPa·kg/mol | 144 kPa·kg/mol | 153 ± 46 kPa·kg/mol | 300 ± 90 kPa·kg/mol | 929 ± 280 kPa·kg/mol | – | – | – | –
Cc1ccc(C)cc1 [1,4-dimethylbenzene] + O | 147 ± 59 kPa·kg/mol | 381 kPa·kg/mol and 439 kPa·kg/mol | 457 ± 180 kPa·kg/mol | – | 1810 ± 730 kPa·kg/mol | 1170 ± 470 kPa·kg/mol | 2090 ± 840 kPa·kg/mol | – | –
CCC(C)c1ccccc1 (stereo not given) [(1-methylpropyl)benzene] + O | 251 kPa·kg/mol | – | 634 kPa·kg/mol | 1100 kPa·kg/mol | 2310 kPa·kg/mol | 2690 kPa·kg/mol | 4160 kPa·kg/mol | – | –
BrCCBr [1,2-dibromoethane] + O | 12.7 ± 3.8 kPa·kg/mol | 54.1 kPa·kg/mol and 41.2 kPa·kg/mol | 57.8 ± 17 kPa·kg/mol | 130 ± 39 kPa·kg/mol | 333 ± 100 kPa·kg/mol | – | – | 218 ± 66 kPa·kg/mol | –
Cc1ccccc1C [1,2-dimethylbenzene] + O | 96.1 ± 29 kPa·kg/mol | 281 kPa·kg/mol and 291 kPa·kg/mol | 318 ± 95 kPa·kg/mol | 321 ± 96 kPa·kg/mol | 1360 ± 410 kPa·kg/mol | 781 ± 230 kPa·kg/mol | 1400 ± 420 kPa·kg/mol | – | –
Clc1ccc(Cl)c(Cl)c1 [1,2,4-trichlorobenzene] + O | 26.9 ± 11 kPa·kg/mol | 75.2 kPa·kg/mol and 81.4 kPa·kg/mol | 83.2 ± 33 kPa·kg/mol | 148 ± 59 kPa·kg/mol | 425 ± 170 kPa·kg/mol | – | 730 ± 290 kPa·kg/mol | 260 ± 100 kPa·kg/mol | –
ClC(Cl)=C(Cl)Cl [tetrachloroethene] + O | 320 ± 130 kPa·kg/mol | 755 kPa·kg/mol and 879 kPa·kg/mol | 813 ± 330 kPa·kg/mol | 2470 ± 990 kPa·kg/mol | 5600 ± 2200 kPa·kg/mol | 2240 ± 900 kPa·kg/mol | 2750 ± 1100 kPa·kg/mol | – | –
CC(C)(C)c1ccccc1 [(1,1-dimethylethyl)benzene] + O | 189 ± 75 kPa·kg/mol | 448 kPa·kg/mol and 554 kPa·kg/mol | 562 ± 220 kPa·kg/mol | 1020 ± 410 kPa·kg/mol | 2160 ± 860 kPa·kg/mol | 2070 ± 830 kPa·kg/mol | 3330 ± 1300 kPa·kg/mol | – | –
Clc1ccccc1 [chlorobenzene] + O | 83.7 ± 25 kPa·kg/mol | 246 kPa·kg/mol and 238 kPa·kg/mol | 270 ± 81 kPa·kg/mol | 423 ± 130 kPa·kg/mol | 1180 ± 350 kPa·kg/mol | 532 ± 160 kPa·kg/mol | 1050 ± 310 kPa·kg/mol | – | –
C=Cc1ccccc1 [styrene] + O | 62.4 ± 19 kPa·kg/mol | 196 kPa·kg/mol | 224 ± 67 kPa·kg/mol | 382 ± 110 kPa·kg/mol | 972 ± 290 kPa·kg/mol | 507 ± 150 kPa·kg/mol | 925 ± 280 kPa·kg/mol | – | –
ClCC(Cl)(Cl)Cl [1,1,1,2-tetrachloroethane] + O | 60.3 ± 18 kPa·kg/mol | 184 kPa·kg/mol and 168 kPa·kg/mol | 199 ± 60 kPa·kg/mol | 388 ± 120 kPa·kg/mol | 1090 ± 330 kPa·kg/mol | – | 832 ± 250 kPa·kg/mol | – | –
ClC(Br)Br [chlorodibromomethane] + O | 22.7 ± 6.8 kPa·kg/mol | 80.5 kPa·kg/mol and 82.2 kPa·kg/mol | 85.7 ± 26 kPa·kg/mol | 179 ± 54 kPa·kg/mol | 536 ± 160 kPa·kg/mol | – | – | 327 ± 98 kPa·kg/mol | –
Clc1cccc(Cl)c1 [1,3-dichlorobenzene] + O | 50.3 ± 20 kPa·kg/mol | 160 kPa·kg/mol and 164 kPa·kg/mol | 185 ± 74 kPa·kg/mol | 309 ± 120 kPa·kg/mol | 768 ± 310 kPa·kg/mol | 552 ± 220 kPa·kg/mol | 967 ± 390 kPa·kg/mol | 519 ± 210 kPa·kg/mol | –
CCCCC(C)=O [2-hexanone] + O | 0.551 ± 0.17 kPa·kg/mol | 4.89 kPa·kg/mol and 5.91 kPa·kg/mol | 7.07 ± 2.1 kPa·kg/mol | 17.9 ± 5.4 kPa·kg/mol | 122 ± 36 kPa·kg/mol | – | – | 48.2 ± 14 kPa·kg/mol | 136 ± 41 kPa·kg/mol
c1ccccc1 [benzene] + O | 193 ± 58 kPa·kg/mol | 480 kPa·kg/mol and 474 kPa·kg/mol | 528 ± 160 kPa·kg/mol | 1190 ± 360 kPa·kg/mol | 2240 ± 670 kPa·kg/mol | 832 ± 250 kPa·kg/mol | 1410 ± 420 kPa·kg/mol | – | –
CCc1ccccc1 [ethylbenzene] + O | 162 kPa·kg/mol | – | 533 kPa·kg/mol | – | 1830 kPa·kg/mol | 1290 kPa·kg/mol | 2320 kPa·kg/mol | – | –
ClCC(Cl)Cl [1,1,2-trichloroethane] + O | 16.9 ± 5.1 kPa·kg/mol | 62 kPa·kg/mol and 60.4 kPa·kg/mol | 65 ± 20 kPa·kg/mol | 148 ± 44 kPa·kg/mol | 419 ± 130 kPa·kg/mol | – | – | 263 ± 79 kPa·kg/mol | –
CC1CCCCC1 [methylcyclohexane] + O | 1060 ± 320 kPa·kg/mol | 2350 kPa·kg/mol and 2300 kPa·kg/mol | 2010 ± 600 kPa·kg/mol | – | – | 9440 ± 2800 kPa·kg/mol | 15600 ± 4700 kPa·kg/mol | – | –
